Target: LSD-1 enzyme (Homo sapiens (Human), UniProt O60341)
Method: LSD1 Histone Demethylase Biochemical Assay
LANCE LSD1/KDM1A demethylase assay-10 μL of 1 nM LSD-1 enzyme (ENZO BML-SE544-0050) in the assay buffer (50 mM Tris, pH 7.5, 0.01% Tween-20, 25 mM NaCl, 5 mM DTT) were preincubated for 1 hour at 25° C. with 0.8 μL compound/DMSO dotted in black 384 well polystyrene plates. […] After stopping the reactions plates were incubated for 30 minutes and read on a PHERAstar FS plate reader (BMG Labtech).

Row | Compound | IC50
1 | Fc1ccc(CN2CC(CN[C@@H]3C[C@H]3c3ccccc3)C2)cc1 (relative stereo) [Example 2, N-{[1-(4-Fluorobenzyl)azetidin-3-yl]methyl}-trans-2-phenylcyclopropanamine] | < 100 nM
2 | Fc1ccc(CN2CCC(N[C@@H]3C[C@H]3c3ccccc3)CC2)cc1 (relative stereo) [Example 5, 1-(4-Fluorobenzyl)-N-(trans-2-phenylcyclopropyl)piperidin-4-amine] | < 100 nM
3 | N#Cc1ccc(CN2CC(CN[C@@H]3C[C@H]3c3ccccc3)C2)cc1 (relative stereo) [Example 6, 4-[(3-{[(trans-2-Phenylcyclopropyl)amino]methyl}azetidin-1-yl)methyl]benzonitrile] | < 100 nM
4 | N#Cc1cccc(CN2CC(CN[C@@H]3C[C@H]3c3ccccc3)C2)c1 (relative stereo) [Example 7, 3-[(3-{[(trans-2-Phenylcyclopropyl)amino]methyl}azetidin-1-yl)methyl]benzonitrile] | < 100 nM
5 | N#CCC1(CN[C@@H]2C[C@H]2c2ccccc2)CCN(C(=O)c2cccc(F)c2)CC1 (relative stereo) [Example 8, (1-(3-Fluorobenzoyl)-4-{[(trans-2-phenylcyclopropyl)amino]methyl}piperidin-4-yl)acetonitrile] | < 100 nM
6 | N#CCC1(CN[C@@H]2C[C@H]2c2ccccc2)CCN(Cc2cccc(F)c2)CC1 (relative stereo) [Example 9, (1-(3-Fluorobenzyl)-4-{[(trans-2-phenylcyclopropyl)amino]methyl}piperidin-4-yl)acetonitrile] | < 100 nM
7 | N#CC1CCN(C(=O)N2CC(CN[C@@H]3C[C@H]3c3ccccc3)C2)CC1 (relative stereo) [Example 12, 1-[(3-{[(trans-2-Phenylcyclopropyl)amino]methyl}azetidin-1-yl)carbonyl]piperidine-4-carbonitrile] | < 100 nM
8 | O=C(N1CCC(C(F)(F)F)CC1)N1CC(CN[C@@H]2C[C@H]2c2ccccc2)C1 (relative stereo) [Example 13, Trans-2-phenyl-N-[(1-{[4-(trifluoromethyl)piperidin-1-yl]carbonyl}azetidin-3-yl)methyl]cyclopropanamine] | < 100 nM
9 | N#CC1(c2ccccc2)CCN(C(=O)N2CC(CN[C@@H]3C[C@H]3c3ccccc3)C2)CC1 (relative stereo) [Example 16, 4-Phenyl-1-[(3-{[(trans-2-phenylcyclopropyl)amino]methyl}azetidin-1-yl)carbonyl]piperidine-4-carbonitrile] | < 100 nM
10 | O=C(N1CCC(O)(c2ccccc2)CC1)N1CC(CN[C@@H]2C[C@H]2c2ccccc2)C1 (relative stereo) [Example 17, 4-Phenyl-1-[(3-{[(trans-2-phenylcyclopropyl)amino]methyl}azetidin-1-yl)carbonyl]piperidin-4-ol] | < 100 nM
11 | O=C(N1CCC2(CC1)CNc1ccc(F)cc12)N1CC(CN[C@@H]2C[C@H]2c2ccccc2)C1 (relative stereo) [Example 18, N-({1-[(5-Fluoro-1,2-dihydro-spiro[indole-3,4′-piperidin]-1′-yl)carbonyl]azetidin-3-yl}methyl)-trans-2-phenylcyclopropanamine] | < 100 nM
12 | O=C(Nc1ccccc1F)N1CC(CN[C@@H]2C[C@H]2c2ccccc2)C1 (relative stereo) [Example 19, N-(2-Fluorophenyl)-3-{[(trans-2-phenylcyclopropyl)amino]methyl}azetidine-1-carboxamide] | < 100 nM
13 | O=C(Nc1cccc(F)c1)N1CC(CN[C@@H]2C[C@H]2c2ccccc2)C1 (relative stereo) [Example 20, N-(3-Fluorophenyl)-3-{[(trans-2-phenylcyclopropyl)amino]methyl}azetidine-1-carboxamide] | < 100 nM
14 | O=C(Nc1ccc(F)cc1)N1CC(CN[C@@H]2C[C@H]2c2ccccc2)C1 (relative stereo) [Example 21, N-(4-Fluorophenyl)-3-{[(trans-2-phenylcyclopropyl)amino]methyl}azetidine-1-carboxamide] | < 100 nM
15 | COc1ccc(NC(=O)N2CC(CN[C@@H]3C[C@H]3c3ccccc3)C2)cc1 (relative stereo) [Example 22, N-(4-Methoxyphenyl)-3-{[(trans-2-phenylcyclopropyl)amino]methyl}azetidine-1-carboxamide] | < 100 nM
16 | COc1cccc(NC(=O)N2CC(CN[C@@H]3C[C@H]3c3ccccc3)C2)c1 (relative stereo) [Example 23, N-(3-Methoxyphenyl)-3-{[(trans-2-phenylcyclopropyl)amino]methyl}azetidine-1-carboxamide] | < 100 nM
17 | COc1ccccc1NC(=O)N1CC(CN[C@@H]2C[C@H]2c2ccccc2)C1 (relative stereo) [Example 24, N-(2-Methoxyphenyl)-3-{[(trans-2-phenylcyclopropyl)amino]methyl}azetidine-1-carboxamide] | < 100 nM
18 | N#Cc1ccc(C(=O)N2CC(CN[C@@H]3C[C@H]3c3ccccc3)C2)cc1 (relative stereo) [Example 25, 4-[(3-{[(trans-2-Phenylcyclopropyl)amino]methyl}azetidin-1-yl)carbonyl]benzonitrile] | < 100 nM

Row | Compound | IC50
19 | N#Cc1cccc(C(=O)N2CC(CN[C@@H]3C[C@H]3c3ccccc3)C2)c1 (relative stereo) [Example 26, 3-[(3-{[(trans-2-Phenylcyclopropyl)amino]methyl}azetidin-1-yl)carbonyl]benzonitrile] | < 100 nM
20 | COc1cccc(C(=O)N2CC(CN[C@@H]3C[C@H]3c3ccccc3)C2)c1 (relative stereo) [Example 27, N-{[1-(3-Methoxybenzoyl)azetidin-3-yl]methyl}-trans-2-phenylcyclopropanamine] | < 100 nM
21 | O=C(c1ccc(F)cc1)N1CC(CN[C@@H]2C[C@H]2c2ccccc2)C1 (relative stereo) [Example 28, N-{[1-(4-Fluorobenzoyl)azetidin-3-yl]methyl}-trans-2-phenylcyclopropanamine] | < 100 nM
22 | O=C(c1cccc(F)c1)N1CC(CN[C@@H]2C[C@H]2c2ccccc2)C1 (relative stereo) [Example 29, N-{[1-(3-Fluorobenzoyl)azetidin-3-yl]methyl}-trans-2-phenylcyclopropanamine] | < 100 nM
23 | O=S(=O)(c1ccc(OC(F)(F)F)cc1)N1CC(CN[C@@H]2C[C@H]2c2ccccc2)C1 (relative stereo) [Example 30, Trans-2-phenyl-N-[(1-{[4-(trifluoromethoxy)phenyl]sulfonyl}azetidin-3-yl)methyl]cyclopropanamine] | < 100 nM
24 | O=C(N1CC(CNC2CC2c2ccccc2)C1)N1CCC[C@@]2(CCN(C3CCC(O)CC3)C2=O)C1 (stereo in doubt) [Example 10, (5R)-2-(cis-4-Hydroxycyclohexyl)-7-[(3-{[(trans-2-phenylcyclopropyl)amino]methyl}azetidin-1-yl)carbonyl]-2,7-diazaspiro[4.5]decan-1-one] | < 100 nM
25 | O=C(N1CC(CNC2CC2c2ccccc2)C1)N1CCC[C@]2(CCN(C3CCC(O)CC3)C2=O)C1 (stereo partly drawn) [Example 11, (5S)-2-(cis-4-Hydroxycyclohexyl)-7-[(3-{[(trans-2-phenylcyclopropyl)amino]methyl}azetidin-1-yl)carbonyl]-2,7-diazaspiro[4.5]decan-1-one] | < 100 nM
26 | O=C(N1CC(CNC2CC2c2ccccc2)C1)N1CCCC(Oc2ccccc2)C1 (stereo not drawn) [Example 14, N-({1-[(3-Phenoxypiperidin-1-yl)carbonyl]azetidin-3-yl}methyl)-trans-2-phenylcyclopropanamine] | < 100 nM
27 | COC1CCCN(C(=O)N2CC(CNC3CC3c3ccccc3)C2)C1 (stereo not drawn) [Example 15, N-({1-[(3-Methoxypiperidin-1-yl)carbonyl]azetidin-3-yl}methyl)-trans-2-phenylcyclopropanamine] | < 100 nM
28 | O=C(O)C1(CN2CCC(CN[C@@H]3C[C@H]3c3ccccc3)(Cc3ccc(F)cc3)CC2)CC1 [Example 31, 1-{[4-(4-fluorobenzyl)-4-({[(1R,2S)-2-phenylcyclopropyl]amino}methyl)piperidin-1-yl]methyl}cyclopropanecarboxylic acid] | < 100 nM
29 | O=C(O)C1(CN2CCC(CN[C@@H]3C[C@H]3c3ccccc3)(Cc3ccc(F)cc3)CC2)CCC1 [Example 32, 1-{[4-(4-fluorobenzyl)-4-({[(1R,2S)-2-phenylcyclopropyl]amino}methyl)piperidin-1-yl]methyl}cyclobutanecarboxylic acid] | < 100 nM
30 | N[C@H]1CC[C@H](C(=O)N2CCC(CN[C@@H]3C[C@H]3c3ccccc3)(Cc3ccc(F)cc3)CC2)CC1 [Example 33, trans-4-{[4-(4-fluorobenzyl)-4-({[(1R,2S)-2-phenylcyclopropyl]amino}methyl)piperidin-1-yl]carbonyl}cyclohexanamine] | < 100 nM
31 | NC1(C(=O)N2CCC(CN[C@@H]3C[C@H]3c3ccccc3)(Cc3ccc(F)cc3)CC2)CCC1 [Example 34, 1-{[4-(4-fluorobenzyl)-4-({[(1R,2S)-2-phenylcyclopropyl]amino}methyl)piperidin-1-yl]carbonyl}cyclobutanamine] | < 100 nM
32 | COCC1(CN[C@@H]2C[C@H]2c2ccccc2)CCN(CC2(C(=O)O)CC2)CC1 [Example 35, 1-{[4-(methoxymethyl)-4-({[(1R,2S)-2-phenylcyclopropyl]amino}methyl)piperidin-1-yl]methyl}cyclopropanecarboxylic acid] | < 100 nM
33 | COCC1(CN[C@@H]2C[C@H]2c2ccccc2)CCN(CC2(C(=O)O)CCCC2)CC1 [Example 37, 1-{[4-(methoxymethyl)-4-({[(1R,2S)-2-phenylcyclopropyl]amino}methyl)piperidin-1-yl]methyl}cyclopentanecarboxylic acid] | < 100 nM
34 | COCC1(CN[C@@H]2C[C@H]2c2ccccc2)CCN(C(=O)[C@@H]2CCCN2C)CC1 [Example 38, (1R,2S)—N-[(4-(methoxymethyl)-1-{[(2S)-1-methylpyrrolidin-2-yl]carbonyl}piperidin-4-yl)methyl]-2-phenylcyclopropanamine] | < 100 nM
35 | COCC1(CN[C@@H]2C[C@H]2c2ccccc2)CCN(C(=O)c2cn(C)cn2)CC1 [Example 39, (1R,2S)—N-({4-(methoxymethyl)-1-[(1-methyl-1H-imidazol-4-yl)carbonyl]piperidin-4-yl}methyl)-2-phenylcyclopropanamine] | < 100 nM
